Patent US20100298141A1, “SUBSTITUTED PYRIDINE N-OXIDE HERBICIDES” (E. I. DU PONT DE NEMOURS AND COMPANY, priority 2007, published 2010)

Tests used:
barnyardgrass [1] = assay: Test A pre-/postemergence greenhouse test; format: in vivo, Echinochloa crus-galli; conditions: for Barnyardgrass plant response rating: 0 to 100 scale
Outline: (§1)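 Seeds sown in a loam soil–sand blend got a preemergence directed soil spray of compound in a non-phytotoxic solvent mixture containing surfactant. Postemergence sprays of the same formulation went at the same time onto plants 2–10 cm tall at the one- to two-leaf stage. Injury was scored visually against untreated controls after about ten days in the greenhouse.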

crabgrass [2] = assay: Test A pre-/postemergence greenhouse test; format: in vivo, Digitaria sanguinalis; conditions: for Crabgrass, Large plant response rating: 0 to 100 scale
Outline: as §1

giant foxtail = assay: Test A pre-/postemergence greenhouse test; format: in vivo, Setaria faberi; conditions: for Foxtail, Giant plant response rating: 0 to 100 scale
Outline: as §1

morningglory = assay: Test A pre-/postemergence greenhouse test; format: in vivo, Ipomoea spp.; conditions: for Morningglory plant response rating: 0 to 100 scale
Outline: as §1

Italian ryegrass = assay: Test C pre-/postemergence test; format: in vivo, Lolium multiflorum; conditions: Preemergence
Outline: (§2)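 Test chemicals were formulated with surfactant in a non-phytotoxic solvent and sprayed both on freshly planted seeds (preemergence) and on 1- to 4-leaf plants of 2–18 cm (postemergence). Flooded-paddy pots received compound directly into 3 cm of standing water, maintained for the test.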

bermudagrass = assay: Test C pre-/postemergence test; format: in vivo, Cynodon dactylon
Outline: as §2

Surinam grass = assay: Test C pre-/postemergence test; format: in vivo, Brachiaria decumbens; conditions: Preemergence
Outline: as §2

cocklebur = assay: Test C pre-/postemergence test; format: in vivo, Xanthium strumarium
Outline: as §2

crabgrass [3] = assay: Test C pre-/postemergence test; format: in vivo, Digitaria sanguinalis; conditions: Preemergence
Outline: as §2

Goosegrass = assay: Test C pre-/postemergence test; format: in vivo, Eleusin indica; conditions: Preemergence
Outline: as §2

kochia = assay: Test C pre-/postemergence test; format: in vivo, Kochia scoparia; conditions: Preemergence
Outline: as §2

lambsquarters = assay: Test C pre-/postemergence test; format: in vivo, Chenopodium album; conditions: Preemergence
Outline: as §2

pigweed = assay: Test C pre-/postemergence test; format: in vivo, Amaranthus retroflexus; conditions: Preemergence
Outline: as §2

soybean = assay: Test C pre-/postemergence test; format: in vivo, Glycine max; conditions: 62 g ai/ha, Preemergence; scale 0 to 100
Outline: as §2

[4] = tested on: common (oilseed) sunflower; assay: Test C pre-/postemergence test; format: in vivo, Helianthus annuus; conditions: 62 g ai/ha, Preemergence; scale 0 to 100
Outline: as §2

umbrella sedge = assay: Test C flooded paddy test; format: in vivo, Cyperus difformis; conditions: Flood
Outline: (§3)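 Greenhouse pots flooded to 3 cm above soil at time of treatment received compound via the water, which stayed at that level.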

barnyardgrass [5] = assay: Test C flooded paddy test; format: in vivo, Echinochloa crus-galli; conditions: Flood
Outline: as §3

[6] = Postemergence, 125 g ai/ha, 0 is no effect, 100 is complete control
[7] = Postemergence, 500 g ai/ha, 0 is no effect, 100 is complete control
[8] = Preemergence, 125 g ai/ha, 0 no effect, 100 complete control
[9] = Preemergence, 500 g ai/ha, 0 to 100 scale where 0 is no effect and 100 is complete control
[10] = 31 g ai/ha, scale 0 to 100 (0 no effect, 100 complete control)
[11] = Preemergence, 31 g ai/ha, scale 0 to 100 (0 no effect, 100 complete control)
[12] = preemergence, 125 g ai/ha, scale 0 (no effect) to 100 (complete control)
[13] = 62 g ai/ha, scale 0 to 100, 0 no effect, 100 complete control, 13 to 15 days
[14] = 125 g ai/ha, scale 0 to 100, 0 no effect, 100 complete control, 13 to 15 days
[15] = 250 g ai/ha, scale 0 to 100, 0 no effect, 100 complete control, 13 to 15 days

## CC(c1c(C(F)(F)F)nn(C)c1OCC(F)(F)F)S(=O)(=O)c1cccc[n+]1[O-] (racemic) [Compound 33]
Barnyardgrass [1]; [6]
  Barnyardgrass plant response rating: 70
Barnyardgrass [1]; [7]
  Barnyardgrass plant response rating: 100
Barnyardgrass [1]; [8]
  Barnyardgrass plant response rating: 100
Barnyardgrass [1]; [9]
  Plant response rating, Barnyardgrass: 100
Crabgrass [2]; [6]
  Crabgrass, Large plant response rating: 90
Crabgrass [2]; [7]
  Crabgrass, Large plant response rating: 90
Crabgrass [2]; [8]
  Crabgrass, Large plant response rating: 90
Crabgrass [2]; [9]
  Plant response rating, Crabgrass, Large: 100
Giant foxtail; [6]
  Foxtail, Giant plant response rating: 90
Giant foxtail; [7]
  Foxtail, Giant plant response rating: 90
Giant foxtail; [8]
  Foxtail, Giant plant response rating: 100
Giant foxtail; [9]
  Plant response rating, Foxtail, Giant: 100
morningglory; [6]
  Morningglory plant response rating: 60
morningglory; [7]
  Morningglory plant response rating: 90
morningglory; [8]
  Morningglory plant response rating: 90
morningglory; [9]
  Plant response rating, Morningglory: 90
Italian ryegrass; 62 g ai/ha, scale 0 to 100
  Ryegrass, Italian plant response rating: 80
Italian ryegrass; [10]
  Plant response rating, Ryegrass, Italian: 70
bermudagrass; 62 g ai/ha, Preemergence, scale 0 to 100 (0 no effect, 100 complete control)
  Bermudagrass plant response rating: 100
bermudagrass; [11]
  Plant response rating, Bermudagrass: 100
bermudagrass; Preemergence, 250 g ai/ha
  Plant response rating (0 to 100), Bermudagrass: 100
bermudagrass; [12]
  Bermudagrass plant response rating: 100
Surinam grass; 62 g ai/ha, scale 0 to 100
  Surinam Grass plant response rating: 100
Surinam grass; [10]
  Plant response rating, Surinam Grass: 80
cocklebur; 62 g ai/ha, Preemergence, scale 0 to 100
  Cocklebur plant response rating: 0
cocklebur; [11]
  Plant response rating, Cocklebur: 0
cocklebur; Preemergence, 250 g ai/ha
  Plant response rating (0 to 100), Cocklebur: 45
cocklebur; [12]
  Cocklebur plant response rating: 40
Crabgrass [3]; 62 g ai/ha, scale 0 to 100
  Crabgrass, Large plant response rating: 100
Crabgrass [3]; [10]
  Plant response rating, Crabgrass, Large: 100
Crabgrass [3]; 250 g ai/ha
  Plant response rating (0 to 100), Crabgrass, Large: 100
Goosegrass; 62 g ai/ha, scale 0 to 100
  Goosegrass plant response rating: 100
Goosegrass; [10]
  Plant response rating, Goosegrass: 100
Goosegrass; 250 g ai/ha
  Plant response rating (0 to 100), Goosegrass: 100
kochia; 62 g ai/ha, scale 0 to 100
  Kochia plant response rating: 100
kochia; [10]
  Plant response rating, Kochia: 100
lambsquarters; 62 g ai/ha, scale 0 to 100
  Lambsquarters plant response rating: 100
lambsquarters; [10]
  Plant response rating, Lambsquarters: 90
pigweed; 62 g ai/ha, scale 0 to 100
  Pigweed plant response rating: 100
pigweed; [10]
  Plant response rating, Pigweed: 100
soybean
  Soybean plant response rating: 60
[4]
  Sunflower plant response rating: 0
Umbrella sedge; [10]
  Plant response rating, Sedge, Umbrella: 80
Umbrella sedge; [13]
  Plant response rating, Sedge, Umbrella: 90
Umbrella sedge; [14]
  Plant response rating, Sedge, Umbrella: 95
Umbrella sedge; [15]
  Plant response rating, Sedge, Umbrella: 95
Barnyardgrass [5]; [10]
  Plant response rating, Barnyardgrass: 30
Barnyardgrass [5]; [13]
  Plant response rating, Barnyardgrass: 30
Barnyardgrass [5]; [14]
  Plant response rating, Barnyardgrass: 30
Barnyardgrass [5]; [15]
  Plant response rating, Barnyardgrass: 80
